Holding throughout (format): functional
In one experiment the test system is Aspergillus niger. The experiment in a line: In vitro antifungal activity against Aspergillus niger KCTC 1231 was measured.
For a further experiment, the system named is Candida albicans. The experiment in a line: In vitro antifungal activity against Candida albicans ATCC 10231 was measured.
For a further experiment, the system named is Pichia kudriavzevii. The experiment in a line: In vitro antifungal activity against Candida krusei ATCC 749 was measured.
For the next experiment, the system named is Candida tropicalis. In words: In vitro antifungal activity against Candida tropicalis ATCC 28775 was measured.

Each structure is given as a SMILES string. ≈ marks a conversion by molar mass, not a printed value.

In the case of `COc1ccc(NC2=C(Cl)C(=O)c3nc(-c4ccccn4)[nH]c3C2=O)cc1`, the MIC in the experiment with Aspergillus niger amounted to 25 µg/mL (≈ 65.7 µM); in the experiment on Candida albicans, 12.5 µg/mL (≈ 32.8 µM); in the experiment on Pichia kudriavzevii, 12.5 µg/mL (≈ 32.8 µM); in the experiment on Candida tropicalis it was 1.6 µg/mL (≈ 4.2 µM).
Regarding `O=C1C(Cl)=C(Nc2ccc(F)cc2)C(=O)c2[nH]c(-c3ccncc3)nc21`, the MIC in the experiment with Aspergillus niger is 100 µg/mL (≈ 271 µM); in the experiment on Candida albicans, greater than 100 µg/mL; in the experiment on Pichia kudriavzevii it was greater than 100 µg/mL; in the experiment on Candida tropicalis it was 6.3 µg/mL (≈ 17.1 µM).
As for `COc1ccc(NC2=C(Cl)C(=O)c3nc(-c4cccnc4)[nH]c3C2=O)cc1`, the MIC in the experiment with Aspergillus niger was 100 µg/mL (≈ 263 µM); in the experiment on Candida albicans, greater than 100 µg/mL; with Pichia kudriavzevii, greater than 100 µg/mL; against Candida tropicalis, 50 µg/mL (≈ 131 µM).
On to `O=C1C(Cl)=C(Nc2ccc(F)cc2)C(=O)c2[nH]c(-c3ccccn3)nc21`, for which the MIC is 25 µg/mL (≈ 67.8 µM) against Aspergillus niger, 12.5 µg/mL (≈ 33.9 µM) in the experiment with Candida albicans, 6.3 µg/mL (≈ 17.1 µM) with Pichia kudriavzevii and 3.2 µg/mL (≈ 8.68 µM) in the experiment on Candida tropicalis.
Taken in the same sequence, the figures for `O=C1C(Cl)=C(Cl)C(=O)c2[nH]c(-c3ccccn3)nc21` were 100 µg/mL (≈ 340 µM), greater than 100 µg/mL, greater than 100 µg/mL and 25 µg/mL (≈ 85 µM).
Take `O=C1C=C(Nc2ccc(Br)cc2)C(=O)c2[nH]c(-c3ccccn3)nc21`: the MIC came to 1.6 µg/mL (≈ 4.05 µM) against Aspergillus niger, 50 µg/mL (≈ 127 µM) with Candida albicans, 1.6 µg/mL (≈ 4.05 µM) with Pichia kudriavzevii and 0.8 µg/mL (≈ 2.02 µM) in the experiment with Candida tropicalis.
For `O=C1C=C(Nc2ccc(Cl)cc2)C(=O)c2[nH]c(-c3ccccn3)nc21`, the MIC against Aspergillus niger was determined as 3.2 µg/mL (≈ 9.12 µM); with Candida albicans, 50 µg/mL (≈ 143 µM); against Pichia kudriavzevii, 1.6 µg/mL (≈ 4.56 µM); against Candida tropicalis, 0.8 µg/mL (≈ 2.28 µM).
Taken in the same sequence, the figures for `O=C1C=CC(=O)c2[nH]c(-c3ccccn3)nc21` were 100 µg/mL (≈ 444 µM), greater than 100 µg/mL, greater than 100 µg/mL and 100 µg/mL (≈ 444 µM).
The corresponding values for `O=C1C=C(Nc2ccc(I)cc2)C(=O)c2[nH]c(-c3ccccn3)nc21` are 100 µg/mL (≈ 226 µM), 50 µg/mL (≈ 113 µM), 1.6 µg/mL (≈ 3.62 µM) and 0.8 µg/mL (≈ 1.81 µM).
On to `Cc1ccc(NC2=C(Cl)C(=O)c3nc(-c4ccccn4)[nH]c3C2=O)cc1`, for which the MIC is 25 µg/mL (≈ 68.5 µM) with Aspergillus niger, 12.5 µg/mL (≈ 34.3 µM) with Candida albicans, 3.2 µg/mL (≈ 8.77 µM) against Pichia kudriavzevii and 1.6 µg/mL (≈ 4.39 µM) in the experiment with Candida tropicalis.
For the compound `COc1ccc(NC2=C(Cl)C(=O)c3nc(-c4ccncc4)[nH]c3C2=O)cc1`, the MIC against Aspergillus niger is 100 µg/mL (≈ 263 µM); in the experiment on Candida albicans it was greater than 100 µg/mL; against Pichia kudriavzevii, greater than 100 µg/mL; against Candida tropicalis, 25 µg/mL (≈ 65.7 µM).
Turning to `O=C1C(Cl)=C(Nc2ccc(F)cc2)C(=O)c2[nH]c(-c3cccnc3)nc21`, the MIC against Aspergillus niger was 100 µg/mL (≈ 271 µM); against Candida albicans it was greater than 100 µg/mL; in the experiment on Pichia kudriavzevii it was greater than 100 µg/mL; in the experiment on Candida tropicalis, 12.5 µg/mL (≈ 33.9 µM).
`CCOc1ccc(NC2=C(Cl)C(=O)c3[nH]c(-c4ccccn4)nc3C2=O)cc1`: the MIC was 25 µg/mL (≈ 63.3 µM) against Aspergillus niger, 12.5 µg/mL (≈ 31.7 µM) against Candida albicans, 12.5 µg/mL (≈ 31.7 µM) in the experiment on Pichia kudriavzevii and 3.2 µg/mL (≈ 8.11 µM) against Candida tropicalis.
For `O=C1C(Cl)=C(Nc2ccc(Br)cc2)C(=O)c2[nH]c(-c3ccncc3)nc21`, the MIC against Aspergillus niger was 100 µg/mL (≈ 233 µM); against Candida albicans, greater than 100 µg/mL; in the experiment with Pichia kudriavzevii, greater than 100 µg/mL; in the experiment on Candida tropicalis, 12.5 µg/mL (≈ 29.1 µM).
On to `O=C1C(Cl)=C(Nc2ccc(Br)cc2)C(=O)c2[nH]c(-c3cccnc3)nc21`, for which the MIC was 100 µg/mL (≈ 233 µM) against Aspergillus niger, greater than 100 µg/mL against Candida albicans, greater than 100 µg/mL against Pichia kudriavzevii and 50 µg/mL (≈ 116 µM) against Candida tropicalis.
Take `O=C1C(Cl)=C(Nc2ccc(Cl)cc2)C(=O)c2[nH]c(-c3cccnc3)nc21`: the MIC in the experiment on Aspergillus niger was 100 µg/mL (≈ 260 µM); in the experiment with Candida albicans, greater than 100 µg/mL; with Pichia kudriavzevii, greater than 100 µg/mL; with Candida tropicalis, 25 µg/mL (≈ 64.9 µM).
Consider `O=C1C(Cl)=C(Nc2ccc(Br)cc2)C(=O)c2[nH]c(-c3ccccn3)nc21`, for which the MIC in the experiment on Aspergillus niger was 6.3 µg/mL (≈ 14.7 µM); in the experiment with Candida albicans, 3.2 µg/mL (≈ 7.45 µM); against Pichia kudriavzevii, 6.3 µg/mL (≈ 14.7 µM); with Candida tropicalis it was 1.6 µg/mL (≈ 3.72 µM).
As for `Cc1ccc(NC2=CC(=O)c3[nH]c(-c4ccccn4)nc3C2=O)cc1`, the MIC in the experiment with Aspergillus niger worked out at 6.3 µg/mL (≈ 19.1 µM); in the experiment with Candida albicans, 3.2 µg/mL (≈ 9.69 µM); against Pichia kudriavzevii, 0.4 µg/mL (≈ 1.21 µM); in the experiment with Candida tropicalis, 0.8 µg/mL (≈ 2.42 µM).
As for `O=C1C(Cl)=C(Nc2ccc(Cl)cc2)C(=O)c2[nH]c(-c3ccccn3)nc21`, the MIC turned out to be 6.3 µg/mL (≈ 16.4 µM) in the experiment on Aspergillus niger, 6.3 µg/mL (≈ 16.4 µM) against Candida albicans, 6.3 µg/mL (≈ 16.4 µM) in the experiment on Pichia kudriavzevii and 3.2 µg/mL (≈ 8.31 µM) in the experiment on Candida tropicalis.
`COc1ccc(NC2=CC(=O)c3[nH]c(-c4ccccn4)nc3C2=O)cc1`: the MIC with Aspergillus niger was 50 µg/mL (≈ 144 µM); against Candida albicans it was 6.3 µg/mL (≈ 18.2 µM); against Pichia kudriavzevii, 1.6 µg/mL (≈ 4.62 µM); in the experiment on Candida tropicalis it was 0.8 µg/mL (≈ 2.31 µM).
For `O=C1C(Nc2ccc(F)cc2)=CC(=O)c2[nH]c(-c3ccccn3)nc21`, the MIC against Aspergillus niger came to 100 µg/mL (≈ 299 µM); in the experiment on Candida albicans, 100 µg/mL (≈ 299 µM); against Pichia kudriavzevii it was 50 µg/mL (≈ 150 µM); against Candida tropicalis, 1.6 µg/mL (≈ 4.79 µM).
Turning to `CCOc1ccc(NC2=CC(=O)c3nc(-c4ccccn4)[nH]c3C2=O)cc1`, the MIC against Aspergillus niger came to 50 µg/mL (≈ 139 µM); in the experiment on Candida albicans, 50 µg/mL (≈ 139 µM); with Pichia kudriavzevii, 1.6 µg/mL (≈ 4.44 µM); against Candida tropicalis it was 0.8 µg/mL (≈ 2.22 µM).
On to `O=C1C(Cl)=C(Nc2ccc(I)cc2)C(=O)c2[nH]c(-c3ccccn3)nc21`, for which the MIC is greater than 100 µg/mL in the experiment on Aspergillus niger, 50 µg/mL (≈ 105 µM) in the experiment on Candida albicans, 100 µg/mL (≈ 210 µM) in the experiment with Pichia kudriavzevii and 3.2 µg/mL (≈ 6.71 µM) against Candida tropicalis.
Taken in the same sequence, the figures for `O=C1C(Cl)=C(Nc2ccc(Cl)cc2)C(=O)c2[nH]c(-c3ccncc3)nc21` were 100 µg/mL (≈ 260 µM), greater than 100 µg/mL, greater than 100 µg/mL and 3.2 µg/mL (≈ 8.31 µM).
Taken in the same sequence, the figures for `Nc1nc(=O)[nH]cc1F` [FLUCYTOSINE] were 6.3 µg/mL (≈ 48.8 µM), 3.2 µg/mL (≈ 24.8 µM), 6.3 µg/mL (≈ 48.8 µM) and 6.3 µg/mL (≈ 48.8 µM).

By MIC is commonly meant the least concentration at which growth counts as inhibited. A higher MIC goes with weaker potency.

For the origin of these results see ChEMBL document CHEMBL1146607, “Synthesis and antifungal activity of 2,5-disubstituted-6-arylamino-4,7-benzimidazolediones” (2003).
